Data published in ChEMBL document CHEMBL3885881, “DrugMatrix”.

Species on record: Rattus norvegicus
Experiment: DrugMatrix - Regimen: Daily Repeat
Assay type: toxicity, organism-based, Sprague-Dawley
Parameters: regimen Daily Repeat, gender Male, age 6-8 weeks
Details: in vivo, po, route oral GAVAGE, vehicle .5 % CMC; for ABSOLUTE BASOPHIL / ABSOLUTE EOSINOPHIL / ABSOLUTE LYMPHOCYTE / ABSOLUTE MONOCYTE / ABSOLUTE SEGMENTED NEUTROPHIL / BASOPHIL / EOSINOPHIL / ERYTHROCYTE COUNT / HEMATOCRIT / HEMOGLOBIN / LEUKOCYTE COUNT / LYMPHOCYTE / MEAN CORPUSCULAR HEMOGLOBIN / MEAN CORPUSCULAR HEMOGLOBIN CONCENTRATION / MEAN CORPUSCULAR VOLUME / MONOCYTE / NEUTROPHIL / NUCLEATED RED BLOOD CELLS / PLATELET COUNT: tissue Blood; for ALANINE AMINOTRANSFERASE / ALBUMIN / ALKALINE PHOSPHATASE / ASPARTATE AMINOTRANSFERASE / BLOOD UREA NITROGEN / CARBON DIOXIDE / CHLORIDE / CHOLESTEROL / CREATINE PHOSPHOKINASE / CREATININE / GLUCOSE / LACTATE DEHYDROGENASE / LIPASE / PHOSPHORUS / POTASSIUM / SODIUM / TOTAL BILIRUBIN / TOTAL PROTEIN / URIC ACID: tissue Plasma
[1] = 15 mg/kg, 120 h, dose level Low, time 5 day
[2] = 710 mg/kg, 72 h, dose level High, time 3 day
[3] = 710 mg/kg, 120 h, dose level High, time 5 day

CN1C(=O)CN=C(c2ccccc2)c2cc(Cl)ccc21 [DIAZEPAM]
ABSOLUTE BASOPHIL [1]: 0 CELLS/uL
ABSOLUTE EOSINOPHIL [1]: 72 CELLS/uL
ABSOLUTE LYMPHOCYTE [1]: 10533.67 CELLS/uL
ABSOLUTE MONOCYTE [1]: 40.33 CELLS/uL
ABSOLUTE SEGMENTED NEUTROPHIL [1]: 587.33 CELLS/uL
BASOPHIL [1]: 0%
EOSINOPHIL [1]: 0.67%
ERYTHROCYTE COUNT [1]: 5.7 x10E6/uL
HEMATOCRIT [1]: 36.2%
HEMOGLOBIN [1]: 14.23 G/DL
LEUKOCYTE COUNT [1]: 11.23 x10E3/uL
LYMPHOCYTE [1]: 93.67%
MEAN CORPUSCULAR HEMOGLOBIN [1]: 25.07 pg
MEAN CORPUSCULAR HEMOGLOBIN CONCENTRATION [1]: 39.37 G/DL
MEAN CORPUSCULAR VOLUME [1]: 63.67 fL
MONOCYTE [1]: 0.33%
NEUTROPHIL [1]: 5.33%
NUCLEATED RED BLOOD CELLS [1]: 0 /100WBC
PLATELET COUNT [1]: 1134.33 x10E3/uL
ALANINE AMINOTRANSFERASE [1]: 51.33 u/L
ALBUMIN [1]: 4.17 G/DL
ALKALINE PHOSPHATASE [1]: 404.33 u/L
ASPARTATE AMINOTRANSFERASE [1]: 80.33 u/L
BLOOD UREA NITROGEN [1]: 16.33 mg/dL
CARBON DIOXIDE [1]: 27.67 mmol/L
CHLORIDE [1]: 101.67 MEQ/L
CHOLESTEROL [1]: 58.67 mg/dL
CREATINE PHOSPHOKINASE [1]: 231 u/L
CREATININE [1]: 0.18 mg/dL
GLUCOSE [1]: 147.67 mg/dL
LACTATE DEHYDROGENASE [1]: 117.67 u/L
LIPASE [1]: 9 u/L
PHOSPHORUS [1]: 12.13 mg/dL
POTASSIUM [1]: 7.09 MEQ/L
SODIUM [1]: 143.97 MEQ/L
TOTAL BILIRUBIN [1]: 0.23 mg/dL
TOTAL PROTEIN [1]: 5.93 G/DL
URIC ACID [1]: 1.43 mg/dL
ABSOLUTE BASOPHIL [2]: 0 CELLS/uL
ABSOLUTE EOSINOPHIL [2]: 125.67 CELLS/uL
ABSOLUTE LYMPHOCYTE [2]: 9703.33 CELLS/uL
ABSOLUTE MONOCYTE [2]: 42.33 CELLS/uL
ABSOLUTE SEGMENTED NEUTROPHIL [2]: 1128.67 CELLS/uL
BASOPHIL [2]: 0%
EOSINOPHIL [2]: 1%
ERYTHROCYTE COUNT [2]: 5.78 x10E6/uL
HEMATOCRIT [2]: 35.37%
HEMOGLOBIN [2]: 13.83 G/DL
LEUKOCYTE COUNT [2]: 11 x10E3/uL
LYMPHOCYTE [2]: 88.33%
MEAN CORPUSCULAR HEMOGLOBIN [2]: 23.93 pg
MEAN CORPUSCULAR HEMOGLOBIN CONCENTRATION [2]: 39.1 G/DL
MEAN CORPUSCULAR VOLUME [2]: 61.17 fL
MONOCYTE [2]: 0.33%
NEUTROPHIL [2]: 10.33%
NUCLEATED RED BLOOD CELLS [2]: 0 /100WBC
PLATELET COUNT [2]: 1330.67 x10E3/uL
ALANINE AMINOTRANSFERASE [2]: 69.67 u/L
ALBUMIN [2]: 4.07 G/DL
ALKALINE PHOSPHATASE [2]: 240 u/L
ASPARTATE AMINOTRANSFERASE [2]: 86.67 u/L
BLOOD UREA NITROGEN [2]: 14 mg/dL
CARBON DIOXIDE [2]: 33.33 mmol/L
CHLORIDE [2]: 101.33 MEQ/L
CHOLESTEROL [2]: 106.33 mg/dL
CREATINE PHOSPHOKINASE [2]: 222 u/L
CREATININE [2]: 0.21 mg/dL
GLUCOSE [2]: 159 mg/dL
LACTATE DEHYDROGENASE [2]: 204.67 u/L
LIPASE [2]: 10.67 u/L
PHOSPHORUS [2]: 12.7 mg/dL
POTASSIUM [2]: 6.45 MEQ/L
SODIUM [2]: 143.1 MEQ/L
TOTAL BILIRUBIN [2]: 0.2 mg/dL
TOTAL PROTEIN [2]: 5.53 G/DL
URIC ACID [2]: 1.27 mg/dL
ABSOLUTE BASOPHIL [3]: 0 CELLS/uL
ABSOLUTE EOSINOPHIL [3]: 31.67 CELLS/uL
ABSOLUTE LYMPHOCYTE [3]: 10193.33 CELLS/uL
ABSOLUTE MONOCYTE [3]: 269 CELLS/uL
ABSOLUTE SEGMENTED NEUTROPHIL [3]: 1672.67 CELLS/uL
BASOPHIL [3]: 0%
EOSINOPHIL [3]: 0.33%
ERYTHROCYTE COUNT [3]: 5.59 x10E6/uL
HEMATOCRIT [3]: 34.87%
HEMOGLOBIN [3]: 13.8 G/DL
LEUKOCYTE COUNT [3]: 12.17 x10E3/uL
LYMPHOCYTE [3]: 84%
MEAN CORPUSCULAR HEMOGLOBIN [3]: 24.77 pg
MEAN CORPUSCULAR HEMOGLOBIN CONCENTRATION [3]: 39.6 G/DL
MEAN CORPUSCULAR VOLUME [3]: 62.47 fL
MONOCYTE [3]: 2.33%
NEUTROPHIL [3]: 13.33%
NUCLEATED RED BLOOD CELLS [3]: 0 /100WBC
PLATELET COUNT [3]: 1299.67 x10E3/uL
ALANINE AMINOTRANSFERASE [3]: 81.67 u/L
ALBUMIN [3]: 3.93 G/DL
ALKALINE PHOSPHATASE [3]: 319.33 u/L
ASPARTATE AMINOTRANSFERASE [3]: 104.67 u/L
BLOOD UREA NITROGEN [3]: 13.67 mg/dL
CARBON DIOXIDE [3]: 25.33 mmol/L
CHLORIDE [3]: 101 MEQ/L
CHOLESTEROL [3]: 119.67 mg/dL
CREATINE PHOSPHOKINASE [3]: 535.33 u/L
CREATININE [3]: 0.16 mg/dL
GLUCOSE [3]: 133.33 mg/dL
LACTATE DEHYDROGENASE [3]: 507 u/L
LIPASE [3]: 11.33 u/L
PHOSPHORUS [3]: 11.5 mg/dL
POTASSIUM [3]: 5.38 MEQ/L
SODIUM [3]: 142.53 MEQ/L
TOTAL BILIRUBIN [3]: 0.13 mg/dL
TOTAL PROTEIN [3]: 5.7 G/DL
URIC ACID [3]: 1.23 mg/dL
